This note sets out measurements from US12685717B2, “Suppression of inflammasome activation” (Washington University, priority 2020, dated 2026).

Holding throughout (assay type): cell-based
Assay [1] relates to SWELL1 KO primary macrophages. The assay is described as follows: Hypotonically-induced currents in SWELL1 KO primary macrophages. The conditions noted are these: 210 mOsm, FIG. 8. The protocol:
See FIG. 7 (Panel A, Current over time plot; Panel B, Current voltage plot from (A) above). Current over time of hypotonically-induced currents in SWELL1 KO primary macrophages (210 mOsm) was measured along with DCPIB response. […] See FIG. 8 (Panel A, Current over time plot; Panel B, Current voltage plot from (A) above).

The subject of another assay is SWELL1 current. The assay is described as follows: Hypotonically-induced currents in wild-type primary macrophages. Particulars: wild-type (WT) primary macrophages, 210 mOsm; FIG. 7.
The subject of the next assay is RAW 264.7 cells. The assay is described as follows: LPS-induced inflammatory cytokine mRNA expression in RAW 264.7 cells (qRT-PCR). The conditions noted are these: 10 μM, 2 hours preincubation, LPS 50 ng/ml for 30 minutes, FIG. 6. As to the method: RAW 264.7 cells were incubated with either vehicle (DMSO) or SN-401 (10 μM) and SN-406 (10 μM) for 2 hours and subsequently, cells were activated with either LPS (50 ng/ml) alone or along with SN-401 (10 μM) and SN-406 (10 μM) for 30 minutes. After the activation cells were harvested for qRT-PCR analysis (see FIG. 6, panels A-C). Relative mRNA expression for selected inflammatory markers, IL1β, TNF-α and CXCL10 from 3 independent experiments. Statistical significance between the indicated groups were calculated by using a two-tailed Student's t-test. Error bars represent mean ±s.e.m. *, P<0.05, **, P<0.01, ***, P<0.001, ****, P<0.0001.
In general terms: Quantitative PCR measures a nucleic acid by following its amplification.

Assay [2] concerns inflammasome mediated IL-1β secretion from primary macrophages. The assay is described as follows: Macrophage inflammasome activation (IL-1β) in response to LPS + MSU crystals. Particulars: LPS priming followed by MSU, FIG. 5. From the text: See FIG. 4 for the structures of the compounds. Mechanical stimulation by MSU crystals function as a physiological activation mechanism for the putatively mechanosensitive SWELL1-LRRC8 channel complex as macrophages engulf MSU and undergo large volume changes. This is analogous to cholesterol crystals that are thought to contribute to NASH by driving simple hepatic steatosis toward fibrotic steatosis. […] First-pass effect from oral delivery, combined with the fact that SN-40X are lipophilic carboxylic acids may conspire to increase hepatic drug concentrations sufficiently to exert anti-inflammatory activity on resident hepatic macrophages and Kupffer cells that contribute to steatohepatitis.

Structures are written as SMILES.

`CCCCC1(C2CCCC2)Cc2cc(OCCCC(=O)O)c(Cl)c(Cl)c2C1=O` (stereo not drawn) [DCPIB, 4-[(2-butyl-6,7-dichloro-2-cyclopentyl-1-oxo-2,3-dihydro-1H-inden-5-yl)oxy]butanoic acid]: the “response of hypotonically-induced current” value in assay [1] is on record as “No response”. For the same molecule, the “inhibition of hypotonically-induced current” value in the assay with SWELL1 current was “inhibition”.
As to `CCCCC1(C2CCCC2)Cc2cc(OCCCC(=O)O)c(Cl)c(Cl)c2C1=O` (stereo not drawn) [SN-401], the “expression of LPS-induced inflammatory cytokine production (relative mRNA IL1β, TNF-α, CXCL10)” value in the assay on RAW 264.7 cells was “Inhibit”. Moreover, the “suppression of inflammasome mediated IL-1β secretion” value in assay [2] is on record as “fully suppressed”.
The matching figures for `CCCCC1(C2CCCC2)Cc2cc(OCCCCCC(=O)O)c(Cl)c(Cl)c2C1=O` (stereo not drawn) [SN-406]: “Inhibit” and “fully suppressed”.
